Test system: MV-4-11 cells
Test: Gene expression microarray analysis (Affymetrix PrimeView) and GSEA
Assay type: cell-based, human
Design: RFU PODN (11730768_x_at) / Fold change /veh PODN (11730768_x_at) / RFU LINC00158 (11744669_a_at) / Fold change /veh LINC00158 (11744669_a_at) / RFU DUSP10 (11751237_a_at) / Fold change /veh DUSP10 (11751237_a_at) / RFU ID3 (11757404_x_at) / Fold change /veh ID3 (11757404_x_at) / RFU PLEKHG5 (11737974_s_at) / Fold change /veh PLEKHG5 (11737974_s_at) / RFU LRRC4B (11730491_at) / Fold change /veh LRRC4B (11730491_at) / RFU GIMAP4 (11747438_a_at) / Fold change /veh GIMAP4 (11747438_a_at) / RFU KRT8 (11758183_x_at) / Fold change /veh KRT8 (11758183_x_at) / RFU CNN1 (11734310_a_at) / Fold change /veh CNN1 (11734310_a_at) / RFU VPS37D (11726825_at) / Fold change /veh VPS37D (11726825_at) / RFU C10orf10 (11716522_x_at) / Fold change /veh C10orf10 (11716522_x_at) / RFU KIR2DL2 /// KIR2DL4 /// KIR2DL5A /// KIR2DL5B /// KIR2DS1 /// KIR2DS2 /// KIR2DS3 /// KIR2DS4 /// KIR3DL3 /// KIR3DL3 /// KIR3DS1 (11738374_at) / Fold change /veh KIR2DL2 /// KIR2DL4 /// KIR2DL5A /// KIR2DL5B /// KIR2DS1 /// KIR2DS2 /// KIR2DS3 /// KIR2DS4 /// KIR3DL3 /// KIR3DL3 /// KIR3DS1 (11738374_at) / RFU C1QL1 (11718748_at) / Fold change /veh C1QL1 (11718748_at) / RFU TMPRSS4 (11747572_a_at) / Fold change /veh TMPRSS4 (11747572_a_at) / RFU HAMP (11756126_x_at) / Fold change /veh HAMP (11756126_x_at) / RFU RNFT2 (11725882_a_at) / Fold change /veh RNFT2 (11725882_a_at) / RFU NR4A2 (11747474_a_at) / Fold change /veh NR4A2 (11747474_a_at) / RFU ABCC12 (11746883_a_at) / Fold change /veh ABCC12 (11746883_a_at) / RFU TMEM136 (11760407_x_at) / Fold change /veh TMEM136 (11760407_x_at) / RFU CLDN22 /// WWC2 (11732394_at) / Fold change /veh CLDN22 /// WWC2 (11732394_at) / RFU HLA-DPB1 (11760878_x_at) / Fold change /veh HLA-DPB1 (11760878_x_at) / RFU SPINT1 (11716480_a_at) / Fold change /veh SPINT1 (11716480_a_at) / RFU GAP43 (11754022_s_at) / Fold change /veh GAP43 (11754022_s_at) / RFU A4GNT (11735810_at) / Fold change /veh A4GNT (11735810_at) / RFU PRB3 (11715151_x_at) / Fold change /veh PRB3 (11715151_x_at) / RFU TUBB4B (11761932_at) / Fold change /veh TUBB4B (11761932_at) / RFU CAPN14 (11732068_a_at) / Fold change /veh CAPN14 (11732068_a_at) / RFU TMCC2 (11721928_a_at) / Fold change /veh TMCC2 (11721928_a_at) / RFU IRGQ (11745062_a_at) / Fold change /veh IRGQ (11745062_a_at) / RFU FAM174B (11720279_a_at) / Fold change /veh FAM174B (11720279_a_at) / RFU TMPRSS4 (11748680_a_at) / Fold change /veh TMPRSS4 (11748680_a_at) / RFU FAM212B (11763350_a_at) / Fold change /veh FAM212B (11763350_a_at) / RFU PLEKHG5 (11743358_a_at) / Fold change /veh PLEKHG5 (11743358_a_at) / RFU ZSCAN30 (11745921_a_at) / Fold change /veh ZSCAN30 (11745921_a_at) / RFU CMKLR1 (11741424_a_at) / Fold change /veh CMKLR1 (11741424_a_at) / RFU LOC101060620 /// MAPK8IP1 (11723275_at) / Fold change /veh LOC101060620 /// MAPK8IP1 (11723275_at) / RFU SPTSSB (11747773_x_at) / Fold change /veh SPTSSB (11747773_x_at) / RFU PRSS12 (11739890_at) / Fold change /veh PRSS12 (11739890_at) / RFU BIN1 (11741810_x_at) / Fold change /veh BIN1 (11741810_x_at) / RFU WNT11 (11732464_a_at) / Fold change /veh WNT11 (11732464_a_at) / RFU C10orf10 (11716521_a_at) / Fold change /veh C10orf10 (11716521_a_at) / RFU C5orf56 (11738089_at) / Fold change /veh C5orf56 (11738089_at) / RFU CYB561 (11721691_x_at) / Fold change /veh CYB561 (11721691_x_at) / RFU ANKRD19P (11752326_a_at) / Fold change /veh ANKRD19P (11752326_a_at) / RFU OR2T12 /// OR2T33 /// OR2T8 (11738714_s_at) / Fold change /veh OR2T12 /// OR2T33 /// OR2T8 (11738714_s_at) / RFU VCAN (11748164_a_at) / Fold change /veh VCAN (11748164_a_at) / RFU JSRP1 (11732532_at) / Fold change /veh JSRP1 (11732532_at) / RFU KRTAP10-11 (11738290_x_at) / Fold change /veh KRTAP10-11 (11738290_x_at) / RFU MYO3A (11730013_a_at) / Fold change /veh MYO3A (11730013_a_at) / RFU EBF3 (11725865_a_at) / Fold change /veh EBF3 (11725865_a_at) / RFU CAMK2N1 (11719241_x_at) / Fold change /veh CAMK2N1 (11719241_x_at) / RFU C5orf56 (11738088_a_at) / Fold change /veh C5orf56 (11738088_a_at) / RFU OLFML3 (11715873_a_at) / Fold change /veh OLFML3 (11715873_a_at) / RFU LOC100653217 /// NTM (11731650_a_at) / Fold change /veh LOC100653217 /// NTM (11731650_a_at) / RFU MAPK11 (11762145_a_at) / Fold change /veh MAPK11 (11762145_a_at) / RFU FIZ1 (11724087_x_at) / Fold change /veh FIZ1 (11724087_x_at) / RFU OASL (11726364_x_at) / Fold change /veh OASL (11726364_x_at) / RFU SOX15 (11748057_x_at) / Fold change /veh SOX15 (11748057_x_at) / RFU CD79A (11719716_a_at) / Fold change /veh CD79A (11719716_a_at) / RFU HIST1H1D (11736915_at) / Fold change /veh HIST1H1D (11736915_at) / RFU CASKIN2 (11723855_a_at) / Fold change /veh CASKIN2 (11723855_a_at) / RFU LOC730098 (11760151_x_at) / Fold change /veh LOC730098 (11760151_x_at) / RFU OR4N2 (11742367_at) / Fold change /veh OR4N2 (11742367_at) / RFU PRRT2 (11749266_a_at) / Fold change /veh PRRT2 (11749266_a_at) / RFU SNX32 (11753110_a_at) / Fold change /veh SNX32 (11753110_a_at) / RFU CDHR5 (11726645_a_at) / Fold change /veh CDHR5 (11726645_a_at) / RFU RCAN1 (11760418_a_at) / Fold change /veh RCAN1 (11760418_a_at) / RFU FAM167A (11723789_a_at) / Fold change /veh FAM167A (11723789_a_at) / RFU FAM26E (11764081_at) / Fold change /veh FAM26E (11764081_at) / RFU ISYNA1 (11749810_s_at) / Fold change /veh ISYNA1 (11749810_s_at) / RFU ACY1 (11761880_at) / Fold change /veh ACY1 (11761880_at) / RFU 11764098_at / Fold change /veh 11764098_at / RFU SAMD14 (11745864_x_at) / Fold change /veh SAMD14 (11745864_x_at) / RFU NPB (11741838_a_at) / Fold change /veh NPB (11741838_a_at) / RFU TMPRSS6 (11731388_a_at) / Fold change /veh TMPRSS6 (11731388_a_at) / RFU KRTAP10-2 (11738614_at) / Fold change /veh KRTAP10-2 (11738614_at) / RFU ARHGAP8 /// PRR5-ARHGAP8 (11727945_x_at) / Fold change /veh ARHGAP8 /// PRR5-ARHGAP8 (11727945_x_at) / RFU KRTAP5-7 /// NADSYN1 (11734609_at) / Fold change /veh KRTAP5-7 /// NADSYN1 (11734609_at) / RFU RASL12 (11751679_a_at) / Fold change /veh RASL12 (11751679_a_at) / RFU CDKN2B (11736163_a_at) / Fold change /veh CDKN2B (11736163_a_at) / RFU PRF1 (11729649_at) / Fold change /veh PRF1 (11729649_at) / RFU, ZNF638 /// ZNF638-IT1 / Fold change vs veh, ZNF638 /// ZNF638-IT1 / RFU, PANK3 / Fold change vs veh, PANK3 / RFU, SH3YL1 / Fold change vs veh, SH3YL1 / RFU, ZEB2 / Fold change vs veh, ZEB2 / RFU, NRIP1 / Fold change vs veh, NRIP1 / RFU, PTTG1IP / Fold change vs veh, PTTG1IP / RFU, CAPN2 / Fold change vs veh, CAPN2 / RFU, MED14 / Fold change vs veh, MED14 / RFU, SNORA58 / Fold change vs veh, SNORA58 / RFU, C1orf63 / Fold change vs veh, C1orf63 / RFU, LRRFIP1 / Fold change vs veh, LRRFIP1 / RFU, NDUFAF7 / Fold change vs veh, NDUFAF7 / RFU, SLC12A2 / Fold change vs veh, SLC12A2 / RFU, IBTK / Fold change vs veh, IBTK / RFU, ESF1 / Fold change vs veh, ESF1 / Fold change vs veh, TMEM50B / RFU, TAOK1 / Fold change vs veh, TAOK1 / RFU, ACBD3 / Fold change vs veh, ACBD3 / RFU, TMA16 / Fold change vs veh, TMA16 / RFU, RWDD3 / Fold change vs veh, RWDD3 / RFU, BCAT1 / Fold change vs veh, BCAT1 / RFU, EDEM3 / Fold change vs veh, EDEM3 / RFU, TMEM33 / Fold change vs veh, TMEM33 / RFU, WDR75 / Fold change vs veh, WDR75 / RFU, AHCTF1 / Fold change vs veh, AHCTF1 / RFU, TFRC / Fold change vs veh, TFRC / RFU, ZDHHC17 / Fold change vs veh, ZDHHC17 / RFU, NOM1 / Fold change vs veh, NOM1 / RFU, ARL8B / Fold change vs veh, ARL8B / RFU, ZBTB11 / Fold change vs veh, ZBTB11 / RFU, TAMM41 / Fold change vs veh, TAMM41 / RFU, KIAA1704 /// LOC100996395 / Fold change vs veh, KIAA1704 /// LOC100996395 / RFU, ING1 / Fold change vs veh, ING1 / RFU, TRMT61B / Fold change vs veh, TRMT61B / RFU, FUBP3 / Fold change vs veh, FUBP3 / RFU, TP53 / Fold change vs veh, TP53 / RFU, TNKS2 / Fold change vs veh, TNKS2 / RFU, ZFP14 / Fold change vs veh, ZFP14 / RFU, ACTR2 / Fold change vs veh, ACTR2 / RFU, PPP3R1 / Fold change vs veh, PPP3R1 / RFU, PIK3R1 / Fold change vs veh, PIK3R1 / RFU, HNRNPA1 / Fold change vs veh, HNRNPA1 / RFU, RNF170 / Fold change vs veh, RNF170 / RFU, ZNF28 / Fold change vs veh, ZNF28 / RFU, RNGTT / Fold change vs veh, RNGTT / RFU, OGT / Fold change vs veh, OGT / RFU, BRD1 / Fold change vs veh, BRD1 / RFU, MARS / Fold change vs veh, MARS / RFU, ZNF655 / Fold change vs veh, ZNF655 / RFU, FAHD1 / Fold change vs veh, FAHD1 / RFU, BDP1 / Fold change vs veh, BDP1 / RFU, LRRCC1 / Fold change vs veh, LRRCC1 / RFU, ARID1A / Fold change vs veh, ARID1A / RFU, ZNF146 / Fold change vs veh, ZNF146 / RFU, ZNF330 / Fold change vs veh, ZNF330 / RFU, GPN3 / Fold change vs veh, GPN3 / RFU, C9orf123 / Fold change vs veh, C9orf123 / RFU, N4BP2L2 / Fold change vs veh, N4BP2L2 / RFU, ARFIP1 / Fold change vs veh, ARFIP1 / RFU, FAM179B / Fold change vs veh, FAM179B / RFU, BCL10 / Fold change vs veh, BCL10 / RFU, UHRF1BP1L / Fold change vs veh, UHRF1BP1L / RFU, BET1 / Fold change vs veh, BET1 / RFU, CNOT2 / Fold change vs veh, CNOT2 / RFU, ZNF268 / Fold change vs veh, ZNF268 / Fold change vs veh, ZNF507 / RFU, DGCR2 / Fold change vs veh, DGCR2 / RFU, WDSUB1 / Fold change vs veh, WDSUB1 / Fold change vs veh, HSP90B1 /// MIR3652 / RFU, ADSS / Fold change vs veh, ADSS / RFU, GK / Fold change vs veh, GK / RFU, ZNF148 / Fold change vs veh, ZNF148 / RFU, TAF9 / Fold change vs veh, TAF9 / RFU, SLC1A5 / Fold change vs veh, SLC1A5 / RFU, SLMO2 / Fold change vs veh, SLMO2 / RFU, ABCC4 / Fold change vs veh, ABCC4 / RFU, LOC101060439 /// RAP1B / Fold change vs veh, LOC101060439 /// RAP1B / RFU, RFX7 / Fold change vs veh, RFX7 / RFU, GTPBP10 / Fold change vs veh, GTPBP10 / RFU, CNEP1R1 / Fold change vs veh, CNEP1R1 / RFU, BIVM-ERCC5 /// ERCC5 / Fold change vs veh, BIVM-ERCC5 /// ERCC5 / RFU, ILF3 / Fold change vs veh, ILF3 / RFU 11762660_at / Fold change /veh 11762660_at / RFU VCAN (11757783_s_at) / Fold change /veh VCAN (11757783_s_at) / RFU DDX43 (11728927_at) / Fold change /veh DDX43 (11728927_at) / RFU KRT8 (11758188_x_at) / Fold change /veh KRT8 (11758188_x_at) / RFU NKD1 (11759106_at) / Fold change /veh NKD1 (11759106_at) / RFU SRD5A1 (11742802_a_at) / Fold change /veh SRD5A1 (11742802_a_at) / RFU TPSAB1 /// TPSB2 (11721975_s_at) / Fold change /veh TPSAB1 /// TPSB2 (11721975_s_at) / RFU GSTM3 (11746129_a_at) / Fold change /veh GSTM3 (11746129_a_at) / RFU IL23R (11737362_x_at) / Fold change /veh IL23R (11737362_x_at) / RFU TMEM51 (11727254_a_at) / Fold change /veh TMEM51 (11727254_a_at) / RFU PIWIL2 (11732686_x_at) / Fold change /veh PIWIL2 (11732686_x_at) / RFU ORM1 (11744905_x_at) / Fold change /veh ORM1 (11744905_x_at) / RFU CCDC152 (11743942_at) / Fold change /veh CCDC152 (11743942_at) / RFU ECM1 (11717891_a_at) / Fold change /veh ECM1 (11717891_a_at) / RFU IL23R (11748794_a_at) / Fold change /veh IL23R (11748794_a_at) / RFU TNFAIP8L3 (11732012_x_at) / Fold change /veh TNFAIP8L3 (11732012_x_at) / RFU MBOAT4 (11741988_at) / Fold change /veh MBOAT4 (11741988_at) / RFU 11764193_at / Fold change /veh 11764193_at / RFU TMEM53 (11763286_at) / Fold change /veh TMEM53 (11763286_at) / RFU MAGEB2 (11727129_at) / Fold change /veh MAGEB2 (11727129_at) / RFU TMEM200A (11744735_a_at) / Fold change /veh TMEM200A (11744735_a_at) / RFU CCDC152 (11751479_a_at) / Fold change /veh CCDC152 (11751479_a_at) / RFU FAM211A (11726209_a_at) / Fold change /veh FAM211A (11726209_a_at) / RFU RGS16 (11746705_a_at) / Fold change /veh RGS16 (11746705_a_at) / RFU VCAN (11755009_s_at) / Fold change /veh VCAN (11755009_s_at) / RFU RHOB (11743442_s_at) / Fold change /veh RHOB (11743442_s_at) / RFU RGS16 (11720943_a_at) / Fold change /veh RGS16 (11720943_a_at) / RFU RGS16 (11720944_at) / Fold change /veh RGS16 (11720944_at) / RFU, VPS4B / Fold change vs veh, VPS4B / RFU, CREB1 / Fold change vs veh, CREB1 / RFU, DNAJC13 / Fold change vs veh, DNAJC13 / RFU, GNAQ / Fold change vs veh, GNAQ / RFU, CDK5R1 / Fold change vs veh, CDK5R1 / RFU, ZRANB3 / Fold change vs veh, ZRANB3 / RFU, CUL4A / Fold change vs veh, CUL4A / RFU, CCNY / Fold change vs veh, CCNY / RFU, UFL1 / Fold change vs veh, UFL1 / RFU, COG3 / Fold change vs veh, COG3 / RFU, DIAPH2 / Fold change vs veh, DIAPH2 / RFU, SKA2 / Fold change vs veh, SKA2 / RFU, AFF3 / Fold change vs veh, AFF3 / RFU, LMF1 / Fold change vs veh, LMF1 / RFU, IPO11 / Fold change vs veh, IPO11 / RFU, DFFB / Fold change vs veh, DFFB / RFU, FOXP1 / Fold change vs veh, FOXP1 / RFU, CARD8 / Fold change vs veh, CARD8 / RFU, STRN3 / Fold change vs veh, STRN3 / RFU, ADK / Fold change vs veh, ADK / RFU, RASSF2 / Fold change vs veh, RASSF2 / RFU, WIPF1 / Fold change vs veh, WIPF1 / RFU, LARP1B / Fold change vs veh, LARP1B / RFU, RASA1 / Fold change vs veh, RASA1 / RFU, RB1 / Fold change vs veh, RB1 / RFU, PPFIA1 / Fold change vs veh, PPFIA1 / RFU, MAT2A / Fold change vs veh, MAT2A / RFU, CCT5 / Fold change vs veh, CCT5 / RFU, WDR92 / Fold change vs veh, WDR92 / RFU, CUX1 / Fold change vs veh, CUX1 / RFU, TTC7A / Fold change vs veh, TTC7A / RFU, TMEM135 / Fold change vs veh, TMEM135 / RFU, DEPTOR / Fold change vs veh, DEPTOR / RFU, CPM / Fold change vs veh, CPM / RFU, DNAJB6 / Fold change vs veh, DNAJB6 / RFU, CACNA2D3 / Fold change vs veh, CACNA2D3 / RFU, DTX4 / Fold change vs veh, DTX4 / RFU, TFCP2 / Fold change vs veh, TFCP2 / RFU, GMCL1 /// GMCL1P1 / Fold change vs veh, GMCL1 /// GMCL1P1 / RFU, AEBP2 / Fold change vs veh, AEBP2 / RFU, SNHG1 /// SNORD22 /// SNORD25 /// SNORD26 /// SNORD27 /// SNORD28 /// SNORD29 /// SNORD31 / Fold change vs veh, SNHG1 /// SNORD22 /// SNORD25 /// SNORD26 /// SNORD27 /// SNORD28 /// SNORD29 /// SNORD31 / Fold change (Aza/veh), C12orf56 (ProbeSet 11735607_a_at) / Fold change (ACY-1035/veh), C12orf56 (ProbeSet 11735607_a_at) / Fold change (Aza/veh), FGFR1OP (ProbeSet 11751329_s_at) / Fold change (ACY-1035/veh), FGFR1OP (ProbeSet 11751329_s_at) / Fold change (Aza/veh), VPS36 (ProbeSet 11739960_a_at) / Fold change (ACY-1035/veh), VPS36 (ProbeSet 11739960_a_at) / RFU SYPL1 (11715823_x_at) / Fold change /veh SYPL1 (11715823_x_at) / RFU IGFBP7 (11715501_s_at) / Fold change /veh IGFBP7 (11715501_s_at) / RFU REEP3 (11722064_at) / Fold change /veh REEP3 (11722064_at) / RFU IGLL1 (11728026_x_at) / Fold change /veh IGLL1 (11728026_x_at): dose or concentration left out as unconfirmed
Settings: MV-4-11 cells, 48 hours

## Nc1ccc(-c2cccs2)cc1NC(=O)c1ccc2c(c1)cc(C1CC1)n2CCN1CCOCC1 [ACY-1035]
  Fold change /veh KRT8 (11758183_x_at): 1.06
